Assay results: patent publication US10626112B2, “Heterocyclic sulfonamide derivative and medicine comprising same” (EA PHARMA CO., LTD., priority 2014, dated 2020)

biological target: human TRPA1 (Homo sapiens (Human), UniProt O75762); experiment: Measurement of TRPA1 antagonist activity (1): intracellular calcium increase; type: cell-based; conditions: 293T cells transfected with human TRPA1 expression plasmid; allylisothiocyanate 20 μM stimulation; intracellular calcium fluorescence; read-out: hTRPA1 IC50
Description: Measurement of TRPA1 Antagonist Activity (1)
Human TRPA1 Expression Plasmid
As cDNA encoding human TRPA1 (GenBank accession No. […]), a commercially available product was purchased (manufactured by Kazusa DNA Research Institute, clone No.: pFN21AB7348, item No.: FHC07217). Using this as a template, full-length human TRPA1 gene was amplified using the primer sequences shown below, by reaction using DNA polymerase (manufactured by Stratagene, trade name: PfuUltra High-Fidelity DNA Polymerase).
A recognition site (underlined) of restriction enzyme HindIII was added to the 5′ side, and XbaI site (underlined) was added to the 3′ side, and GTT of the template sequence was changed to termination codon TAG (bold). The obtained double stranded DNA was enzyme-digested with HindIII and XbaI, and introduced into the multicloning site of expression plasmid pcDNA3.1/zeo(+) (manufactured by Invitrogen) to construct a human TRPA1 expression plasmid.
Human embryonic kidney-derived 293T cells were cultured in Dulbecco's Modified Eagle Medium containing 10% fetal bovine serum, 10 unit penicillin, and 10 μg streptomycin, plated on a petri dish having a diameter of 10 cm at 3×10^6 cells, and cultured for 24 hr in a CO2 incubator. A reduced serum medium (manufactured by Invitrogen, trade name: OPTI-MEM, 600 μL), a gene transfer reagent (manufactured by Mirus Bio, trade name: Mirus TransIT-293, 18 μL), and human TRPA1 expression plasmid (6 μg) were mixed, the total amount of the mixture was added to the cells on the petri dish to allow for gene transfer. The cells were recovered about for 8 hr later, plated on a poly-D-lysine coated 384 well black/clear bottom plate at 12,000 cells/well, and cultured overnight.
Measurement of Intracellular Calcium Increase
The 384 well plate was recovered, and the medium was removed. A calcium-bonded fluorescent indicator (manufactured by Molecular Device, trade name: Calcium4 Assay Kit, 38 μL) dissolved in assay buffer (1×HBSS, 20 mM HEPES, pH 7.2) was added, and the cells were stained in a CO2 incubator for 1 hr. The cells were taken out at room temperature, stood for not less than 15 min, a test substance (10 μL) was added by a platereader FDSS7000 (Hamamatsu Photonics K.K.) equipped with a 384ch dispenser. After 10 min, allylisothiocyanate (12 μL) was further added at a final concentration of 20 μM, and changes in the relative fluorescence intensity after addition of allylisothiocyanate were measured for 5 min.
Test Substance Preparation
The test substance was dissolved in dimethyl sulfoxide and serially diluted with an assay buffer containing 0.1% bovine serum albumin (1×HBSS, 20 mM HEPES, pH 7.2) to a 4.8-fold concentration of the evaluation concentration. Allylisothiocyanate, which is a known TRPA1 activator, was dissolved in dimethyl sulfoxide to 100 mM, and further diluted 5-fold (100 μM) of the final concentration, like the test substance.
Calculation of Antagonist Activity
Under the test substance-free conditions, the maximum variation range of the fluorescence intensity before and after allylisothiocyanate stimulation was defined to be 100% activity rate, and the variation range before and after buffer stimulation was defined as 0% activity rate. The activity rate on addition of the test substance was determined, and the numerical value obtained by subtracting the activity rate from 100 was defined to be an inhibitory rate. IC50, which is the concentration of the test substance necessary for reaching the 50% inhibitory rate, was calculated from the sigmoid approximate curve by a spreadsheet software Excel-Fit.

Sequence of human TRPA1 (O75762 whole entry): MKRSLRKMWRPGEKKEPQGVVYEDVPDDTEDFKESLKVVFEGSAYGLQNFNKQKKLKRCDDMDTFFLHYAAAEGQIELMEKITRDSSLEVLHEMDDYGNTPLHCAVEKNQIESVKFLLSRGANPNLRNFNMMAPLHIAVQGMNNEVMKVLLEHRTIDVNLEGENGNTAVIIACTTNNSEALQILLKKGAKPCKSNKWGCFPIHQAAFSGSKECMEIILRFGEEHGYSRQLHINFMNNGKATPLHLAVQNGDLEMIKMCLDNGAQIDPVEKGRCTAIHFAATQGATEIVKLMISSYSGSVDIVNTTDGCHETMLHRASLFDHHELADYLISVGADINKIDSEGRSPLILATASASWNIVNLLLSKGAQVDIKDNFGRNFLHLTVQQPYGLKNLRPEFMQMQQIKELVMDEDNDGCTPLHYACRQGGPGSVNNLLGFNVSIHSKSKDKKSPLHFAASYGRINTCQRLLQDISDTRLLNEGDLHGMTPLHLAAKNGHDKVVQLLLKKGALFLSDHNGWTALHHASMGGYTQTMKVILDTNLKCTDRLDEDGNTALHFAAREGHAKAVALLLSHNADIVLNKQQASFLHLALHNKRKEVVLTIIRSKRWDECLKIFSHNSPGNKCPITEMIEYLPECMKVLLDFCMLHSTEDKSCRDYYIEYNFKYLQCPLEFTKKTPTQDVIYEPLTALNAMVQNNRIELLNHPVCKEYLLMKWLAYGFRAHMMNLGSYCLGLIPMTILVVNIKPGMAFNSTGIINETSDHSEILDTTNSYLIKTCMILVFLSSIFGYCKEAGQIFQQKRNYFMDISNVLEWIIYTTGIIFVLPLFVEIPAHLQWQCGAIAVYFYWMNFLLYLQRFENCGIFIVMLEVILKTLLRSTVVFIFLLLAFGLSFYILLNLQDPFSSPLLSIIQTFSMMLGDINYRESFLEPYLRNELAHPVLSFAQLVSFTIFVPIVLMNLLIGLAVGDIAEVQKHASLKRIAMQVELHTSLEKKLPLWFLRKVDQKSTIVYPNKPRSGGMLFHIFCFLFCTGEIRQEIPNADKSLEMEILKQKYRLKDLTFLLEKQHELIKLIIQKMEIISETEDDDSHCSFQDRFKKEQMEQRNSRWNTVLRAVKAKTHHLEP

| IC50 [nM] | SMILES |
| --- | --- |
| 12 | O=C(NCc1cc(-c2ccc(C(F)(F)F)cn2)ccn1)[C@@H]1c2ccccc2CN1S(=O)(=O)c1cc2cc(F)ccc2o1 (racemic) [Example 264, (rac)-2-(5-fluorobenzofuran-2-yl)sulfonyl-N-[[4-[5-(trifluoromethyl)-2-pyridyl]-2-pyridyl]methyl]isoindoline-1-carboxamide] |
| 3 | N#Cc1ccc(COc2cccc(CNC(=O)[C@@H]3CCCN3S(=O)(=O)c3cc4ccccc4o3)c2)cc1 [Example 1, (2S)-1-(benzofuran-2-ylsulfonyl)-N-[[3-[(4-cyanophenyl)methoxy]phenyl]methyl]pyrrolidine-2-carboxamide] |
| 7.9 | N#Cc1cccc(COc2cccc(CNC(=O)[C@@H]3CCCN3S(=O)(=O)c3cc4ccccc4o3)c2)c1 [Example 2, (2S)-1-(benzofuran-2-ylsulfonyl)-N-[[3-[(3-cyanophenyl)methoxy]phenyl]methyl]pyrrolidine-2-carboxamide] |
| 72 | O=C(NCc1cccc(OCc2cccnc2)c1)[C@@H]1CCCN1S(=O)(=O)c1cc2ccccc2o1 [Example 3, (2S)-1-(benzofuran-2-ylsulfonyl)-N-[[3-(3-pyridylmethoxy)phenyl]methyl]pyrrolidine-2-carboxamide] |
| 23 | O=C(NCc1cccc(OCc2ccco2)c1)[C@@H]1CCCN1S(=O)(=O)c1cc2ccccc2o1 [Example 4, (2S)-1-(benzofuran-2-ylsulfonyl)-N-[[3-(2-furylmethoxy)phenyl]methyl]pyrrolidine-2-carboxamide] |
| 12 | O=C(NCc1cccc(OCc2cccs2)c1)[C@@H]1CCCN1S(=O)(=O)c1cc2ccccc2o1 [Example 5, (2S)-1-(benzofuran-2-ylsulfonyl)-N-[[3-(2-thienylmethoxy)phenyl]methyl]pyrrolidine-2-carboxamide] |
| 7.5 | O=C(NCc1cccc(OCc2ccsc2)c1)[C@@H]1CCCN1S(=O)(=O)c1cc2ccccc2o1 [Example 6, (2S)-1-(benzofuran-2-ylsulfonyl)-N-[[3-(3-thienylmethoxy)phenyl]methyl]pyrrolidine-2-carboxamide] |
| 5.4 | O=C(NCc1cccc(OCc2ccnc(C(F)(F)F)c2)c1)[C@@H]1CCCN1S(=O)(=O)c1cc2ccccc2o1 [Example 7] |
| 6.2 | O=C(NCc1cccc(OCc2ccc(C(F)(F)F)nc2)c1)[C@@H]1CCCN1S(=O)(=O)c1cc2ccccc2o1 [Example 8, (2S)-1-(benzofuran-2-ylsulfonyl)-N-[[3-[[6-(trifluoromethyl)-3-pyridyl]methoxy]phenyl]-methyl]pyrrolidine-2-carboxamide] |
| 7.6 | O=C(NCc1cccc(OCc2cncc(C(F)(F)F)c2)c1)[C@@H]1CCCN1S(=O)(=O)c1cc2ccccc2o1 [Example 9, (2S)-1-(benzofuran-2-ylsulfonyl)-N-[[3-[[5-(trifluoromethyl)-3-pyridyl]methoxy]phenyl]-methyl]pyrrolidine-2-carboxamide] |
| 10 | O=C(NCc1cccc(OCc2cncc(Cl)c2)c1)[C@@H]1CCCN1S(=O)(=O)c1cc2ccccc2o1 [Example 10, (2S)-1-(benzofuran-2-ylsulfonyl)-N-[[3-[(5-chloro-3-pyridyl)methoxy]-phenyl]methyl]-pyrrolidine-2-carboxamide] |
| 1 | N#Cc1ccc(COc2cccc(CNC(=O)[C@@H]3CCCN3S(=O)(=O)c3cc4cc(F)ccc4o3)c2)cc1 [Example 11, (2S)-N-[[3-[(4-cyanophenyl)methoxy]phenyl]methyl]-1-(5-fluorobenzofuran-2-yl)sulfonyl-pyrrolidine-2-carboxamide] |
| 8.1 | CN(C)c1cccc(COc2cccc(CNC(=O)[C@@H]3CCCN3S(=O)(=O)c3cc4cc(F)ccc4o3)c2)c1 [Example 12, (2S)-N-[[3-[[3-(dimethylamino)phenyl]methoxy]phenyl]-methyl]-1-(5-fluorobenzofuran-2-yl)sulfonyl-pyrrolidine-2-carboxamide] |
| 19 | O=C(NCc1cccc(OCc2ccncc2)c1)[C@@H]1CCCN1S(=O)(=O)c1cc2cc(F)ccc2o1 [Example 13, (2S)-1-(5-fluorobenzofuran-2-yl)sulfonyl-N-[[3-(4-pyridylmethoxy)phenyl]methyl]pyrrolidine-2-carboxamide] |
| 20 | O=C(NCc1cccc(OCc2cccnc2)c1)[C@@H]1CCCN1S(=O)(=O)c1cc2cc(F)ccc2o1 [Example 14, (2S)-1-(5-fluorobenzofuran-2-yl)sulfonyl-N-[[3-(3-pyridylmethoxy)phenyl]-methyl]pyrrolidine-2-carboxamide] |
| 100 | O=C(NCc1cccc(OCc2ccccn2)c1)[C@@H]1CCCN1S(=O)(=O)c1cc2cc(F)ccc2o1 [Example 15, (2S)-1-(5-fluorobenzofuran-2-yl)sulfonyl-N-[[3-(2-pyridylmethoxy)phenyl]-methyl]pyrrolidine-2-carboxamide] |
| 2.8 | O=C(NCc1cccc(OCc2ccnc(C(F)(F)F)c2)c1)[C@@H]1CCCN1S(=O)(=O)c1cc2cc(F)ccc2o1 [Example 16, (2S)-1-(5-fluorobenzofuran-2-yl)sulfonyl-N-[[3-[[2-(trifluoromethyl)-4-pyridyl]methoxy]phenyl]-methyl]pyrrolidine-2-carboxamide] |
| 15 | CN(C)c1cc(COc2cccc(CNC(=O)[C@@H]3CCCN3S(=O)(=O)c3cc4cc(F)ccc4o3)c2)ccn1 [Example 17, (2S)-N-[[3-[[2-(dimethylamino)-4-pyridyl]methoxy]phenyl]-methyl]-1-(5-fluorobenzofuran-2-yl)sulfonyl-pyrrolidine-2-carboxamide] |
| 14 | Cc1ccc(COc2cccc(CNC(=O)[C@@H]3CCCN3S(=O)(=O)c3cc4cc(F)ccc4o3)c2)cn1 [Example 19, (2S)-1-(5-fluorobenzofuran-2-yl)sulfonyl-N-[[3-[(6-methyl-3-pyridyl)methoxy]phenyl]-methyl]pyrrolidine-2-carboxamide] |
| 1.4 | O=C(NCc1cccc(OCc2ccc(C(F)(F)F)nc2)c1)[C@@H]1CCCN1S(=O)(=O)c1cc2cc(F)ccc2o1 [Example 20, (2S)-1-(5-fluorobenzofuran-2-yl)sulfonyl-N-[[3-[[6-(trifluoromethyl)-3-pyridyl]methoxy]phenyl]-methyl]pyrrolidine-2-carboxamide] |
| 34 | CN(C)c1ccc(COc2cccc(CNC(=O)[C@@H]3CCCN3S(=O)(=O)c3cc4cc(F)ccc4o3)c2)cn1 [Example 21, (2S)-N-[[3-[[6-(dimethylamino)-3-pyridyl]methoxy]phenyl]-methyl]-1-(5-fluorobenzofuran-2-yl)sulfonyl-pyrrolidine-2-carboxamide] |
| 110 | CN(C)c1cncc(COc2cccc(CNC(=O)[C@@H]3CCCN3S(=O)(=O)c3cc4cc(F)ccc4o3)c2)c1 [Example 23, (2S)-N-[[3-[[5-(dimethylamino)-3-pyridyl]methoxy]phenyl]-methyl]-1-(5-fluorobenzofuran-2-yl)sulfonyl-pyrrolidine-2-carboxamide] |
| 11 | O=C(NCc1cccc(OCc2cccc(C(F)(F)F)n2)c1)[C@@H]1CCCN1S(=O)(=O)c1cc2cc(F)ccc2o1 [Example 25, (2S)-1-(5-fluorobenzofuran-2-yl)sulfonyl-N-[[3-[[6-(trifluoromethyl)-2-pyridyl]methoxy]phenyl]-methyl]pyrrolidine-2-carboxamide] |
| 23 | CN(C)c1cccc(COc2cccc(CNC(=O)[C@@H]3CCCN3S(=O)(=O)c3cc4cc(F)ccc4o3)c2)n1 [Example 26, (2S)-N-[[3-[[6-(dimethylamino)-2-pyridyl]methoxy]phenyl]-methyl]-1-(5-fluorobenzofuran-2-yl)sulfonyl-pyrrolidine-2-carboxamide] |

| SMILES | IC50 [nM] |
| --- | --- |
| CN1CCOc2cc(COc3cccc(CNC(=O)[C@@H]4CCCN4S(=O)(=O)c4cc5cc(F)ccc5o4)c3)cnc21 [Example 24, (2S)-1-(5-fluorobenzofuran-2-yl)sulfonyl-N-[[3-[(4-methyl-2,3-diphydropyrido[3,2-b][1,4]oxazin-7-yl)methoxy]-phenyl]methyl]pyrrolidine-2-carboxamide] | 410 |
